Source: patent US11401233B1, “Pleuromutilin salicylic acid ester with antibacterial activity and a method of preparing the same” (SHAANXI UNIVERSITY OF SCIENCE AND TECHNOLOGY, priority 2021, dated 2022)

Tests used:
[1] = system: multi-resistant Staphylococcus aureus 596 (MRSA-596); experiment: Paper diffusion method drug sensitivity test, MRSA-596; format: cell-based; conditions: for Zone of inhibition: MRSA-596, 30 μg/tablet paper disc 6.35 mm, LB plate, 37° C., 24 h, ≥17 mm sensitive, 15-16 mm intermediary, ≤14 mm drug resistance
Experimental: (§1) The antimicrobial efficacy was determined by a paper diffusion method drug sensitivity test.
(§2) E Experimental strains: multi-resistant Staphylococcus aureus 206 (MRSA-206), multi-resistant Staphylococcus aureus 575 (MRSA-575), multi-resistant Staphylococcus aureus 596 (MRSA-596). The experimental strain was identified by Huashan Hospital Affiliated to Fudan University (Institute of Antibiotic of Fudan University).
(§3) Drug sensitive paper: The drug sensitive paper was a special drug sensitive paper with a diameter of 6.35 mm and a water absorption of 0.02 mL. The control drug was vancomycin (30 μg/tablet); the test drugs were pleuromulin (30 μg/tablet), salicylic acid (30 μg/tablet) and pleuromulin salicylic acid ester (30 μg/tablet).
(§4) Reagents: LB agar medium, LA broth medium, 0.5% DMSO solution.
(§5) T The experimental strains were inoculated in non-selective medium and placed in air at 37° C. for 24 h. A single colony that grows well and inoculate it into broth medium was incubate at 35° C.±2° C. for 6 hours, and LA broth medium was used to calibrate the concentration of the bacterial solution to 0.5 Mie turbidimetric tube (1.5×10^8 CFU/mL). A bacterial suspension was obtained.
(§6) LB dry powder was weighed, sterilized at 103.4 Kpa, 121.3° C. high-pressure steam for 15 min, and then placed it in a 40° C.-50° C. water bath. A sterile empty plate (inner diameter 9 cm) was placed on the surface of the ultra-clean table water table, and […] to the plate. The thickness of each plate was 3 mm to 4 mm. After the plate was cooled at room temperature, it was stored in the refrigerator at 2° C.-8° C. A sterile cotton swab was used to dip the bacterial solution and ti evenly coat the surface of the LB plate 3 times. After inoculation of the bacterial suspension, the LB plate was dried at room temperature for 3 min to 5 min. Sterile forceps were used to closely attach the antibacterial drug paper to the dish. The dish was put upside down and placed in a 37° C. incubator for 24 h. The results were observed by measuring the diameter. Taking 0.5% DMSO solution as a negative control, the antibacterial activity is expressed by the diameter of the inhibition zone. The inhibition zone≥17 mm, sensitive; the inhibition zone of 15 mm-16 mm, intermediary; the inhibition zone≤14 mm, drug resistance.

drug-resistant bacteria = experiment: Paper diffusion method drug sensitivity test, overall statement on drug-resistant bacteria; format: cell-based, Staphylococcus aureus; conditions: drug-resistant bacteria in general (strains of Table 1); 30 μg/tablet
Experimental: as §1, §2, §3, §4, §5
as §6, with “Taking 0.5% DMSO solution as a negative control, the antibacterial activity is expressed by the diameter of the inhibition zone. The inhibition zone≥17 mm, sensitive; the inhibition zone of 15 mm-16 mm, intermediary; the inhibition zone≤14 mm, drug resistance.” left out

[2] = system: multi-resistant Staphylococcus aureus 575 (MRSA-575); experiment: Paper diffusion method drug sensitivity test, MRSA-575; format: cell-based; conditions: for Zone of inhibition: MRSA-575, 30 μg/tablet paper disc 6.35 mm, LB plate, 37° C., 24 h, ≥17 mm sensitive, 15-16 mm intermediary, ≤14 mm drug resistance
Experimental: as §1, §2, §3, §4, §5, §6

MRSA-171 = experiment: Paper diffusion method drug sensitivity test, MRSA-171; format: cell-based, Staphylococcus aureus; conditions: for Zone of inhibition: MRSA-171, 30 μg/tablet paper disc 6.35 mm, LB plate, 37° C., 24 h, ≥17 mm sensitive, 15-16 mm intermediary, ≤14 mm drug resistance

Row | SMILES | Zone of inhibition [1] [mm] | inhibitory effect (in words) ([1]; multi-drug resistant Staphylococcus aureus 596, 30 μg/tablet) | inhibitory effect on drug-resistant bacteria (in words) (drug-resistant bacteria) | Zone of inhibition [2] [mm] | inhibitory effect (in words) ([2]; multi-drug resistant Staphylococcus aureus 575, 30 μg/tablet) | Zone of inhibition (MRSA-171) [mm] | inhibitory effect (in words) (MRSA-171; multi-drug resistant Staphylococcus aureus 171, 30 μg/tablet)
1 | C=C[C@]1(C)C[C@@H](OC(=O)COC(=O)c2ccccc2O)[C@]2(C)[C@H](C)CC[C@]3(CCC(=O)[C@H]32)[C@@H](C)[C@@H]1O | 26 | strong inhibitory effects | excellent antibacterial activity and anti-drug-resistant bacteria activity | 10 | strong inhibitory effects | 16 | strong inhibitory effects
2 | O=C(O)c1ccccc1O [Salicylic acid] | 0 | – | no inhibitory effect | 0 | – | 0 | –
3 | C=C[C@]1(C)C[C@@H](OC(=O)CO)[C@]2(C)[C@H](C)CC[C@]3(CCC(=O)[C@H]32)[C@@H](C)[C@@H]1O [Pleuromulin] | 0 | – | no inhibitory effect | 0 | – | 0 | –
4 | CN[C@H](CC(C)C)C(=O)N[C@H]1C(=O)N[C@@H](CC(N)=O)C(=O)N[C@H]2C(=O)N[C@H]3C(=O)N[C@H](C(=O)N[C@H](C(=O)O)c4cc(O)cc(O)c4-c4cc3ccc4O)[C@H](O)c3ccc(c(Cl)c3)Oc3cc2cc(c3O[C@@H]2O[C@H](CO)[C@@H](O)[C@H](O)[C@H]2O[C@H]2C[C@](C)(N)[C@H](O)[C@H](C)O2)Oc2ccc(cc2Cl)[C@H]1O [Vancomycin, vancomycin] | 23 | – | – | 17 | – | 15 | –
